Like-named read-outs stand apart in the source and are kept apart here.
Tests used:
[1] = target: Bcl-2 (Homo sapiens (Human), UniProt P10415)
Method: (§1) Fluorescence polarization values were measured using the Infinite M-1000 plate reader (Tecan U.S., Research Triangle Park, N.C.) in Microfluor 1 96-well, black, round-bottom plates (Thermo Scientific). […] Plates were mixed and incubated at room temperature for 1 hour with gentle shaking to assure equilibrium. […] Equilibrium dissociation constants (Kd) were then calculated by fitting the sigmoidal dose-dependent FP increases as a function of protein concentrations using Graphpad Prism 5.0 software (Graphpad Software, San Diego, Calif.).
(§2) Mixtures of 5 μl of the tested inhibitors in DMSO and 120 μl of pre-incubated protein/probe complexes in the assay buffer were added into assay plates and incubated at room temperature for 2 hours with gentle shaking. […] FP values were measured as described above. IC50 values were determined by nonlinear regression fitting of the competition curves.

[2] = test system: RS4;11 cells; test: RS4;11 cell viability, CCK-8 assay; assay type: cell-based; conditions: Homo sapiens, RS4-11, 96 h, CCK-8, 4 days, read-out: RS4, 11 IC50 (Bcl-2 dependent)
Method: RS4;11 cells were obtained from American Type Culture Collection (ATCC). They were used within three months of thawing fresh vials. Cells were maintained in the recommended culture medium with 10% FBS at 37° C. and an atmosphere of 5% CO2.
The effect of representative Compounds of the Disclosure on cell viability was determined using Cell Counting Kit-8 (CCK-8) assay (Dojindo, Rockville, Md.) according to the manufacturer's instructions. 200 μL of a RS4;11 cell suspension (10000 cells/well) in culture medium were seeded into 96-well plates and cultured overnight. Each tested compound was serially diluted in culture medium, and 20 μL of the compound dilution was added to the corresponding well of the cell plate. After the addition of the tested compound, the cells were incubated at 37° C. in an atmosphere of 5% CO2 for 4 days. At the end of 4 days, 10 μL of CCK-8 solution was added to each well of the plate and incubated for 1-4 hours. The plates were read at 450 nm on the microplate spectrophotometer (Epoch2, BioTek). The readings were normalized to the vehicle cells, and the IC50 was calculated by nonlinear regression analysis using GraphPad Prism 5 software.

[3] = test system: Molm13 cells; test: Molm13 cell viability, CCK-8 assay; assay type: cell-based; conditions: Homo sapiens, MOLM-13, 96 h, CCK-8, 4 days, read-out: Molm13 IC50 (Bcl-2 dependent)
Method: Molm13 cells were obtained from Deutsche Sammlung von Mikroorganismen und Zellkulturen GmbH (DSMZ). They were used within three months of thawing fresh vials. Cells were maintained in the recommended culture medium with 10% FBS at 37° C. and an atmosphere of 5% CO2.
200 μL of a Molm13 cell suspension (10000 cells/well) in culture medium were seeded into 96-well plates and cultured overnight. Each tested compound was serially diluted in culture medium, and 20 μL of the compound dilution was added to the corresponding well of the cell plate. After the addition of the tested compound, the cells were incubated at 37° C. in an atmosphere of 5% CO2 for 4 days. […] The plates were read at 450 nm on the microplate spectrophotometer (Epoch2, BioTek). The readings were normalized to the vehicle cells, and the IC50 was calculated by nonlinear regression analysis using GraphPad Prism 5 software.

[4] = target: Bcl-xL (Homo sapiens (Human), UniProt Q07817); test: Fluorescence polarization competitive binding assay, Bcl-xL; conditions: FP competition, 10 nM Bcl-xL, 2 nM Flu-BAK probe; read-out: Inhibitory activity IC50 Bcl-xL
Method: as §1, §2

[5] = Pharmacokinetics in rats; assay type: in vivo
Method: The pharmacokinetics of ABT-199 and representative Compounds of the Disclosure were evaluated in rats at an IV dose of 2 mg/kg and an oral dose of 20 mg/kg.

[6] = target: Mcl-1 (Homo sapiens (Human), UniProt Q07820); test: FP saturation binding of fluorescent probe to Mcl-1; conditions: 2 nM probe
Chain of Mcl-1 (Q07820 whole entry): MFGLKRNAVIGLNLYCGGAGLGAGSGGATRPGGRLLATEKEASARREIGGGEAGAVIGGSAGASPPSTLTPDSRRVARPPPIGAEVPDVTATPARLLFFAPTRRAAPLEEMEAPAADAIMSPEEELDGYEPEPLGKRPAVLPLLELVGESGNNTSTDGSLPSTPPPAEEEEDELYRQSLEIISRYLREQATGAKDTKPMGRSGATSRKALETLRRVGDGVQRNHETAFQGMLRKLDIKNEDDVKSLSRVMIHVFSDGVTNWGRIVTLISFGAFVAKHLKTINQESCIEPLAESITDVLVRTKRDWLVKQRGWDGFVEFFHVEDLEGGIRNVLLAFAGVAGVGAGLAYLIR
Method: as §1

Chain of Bcl-2 (P10415 whole entry): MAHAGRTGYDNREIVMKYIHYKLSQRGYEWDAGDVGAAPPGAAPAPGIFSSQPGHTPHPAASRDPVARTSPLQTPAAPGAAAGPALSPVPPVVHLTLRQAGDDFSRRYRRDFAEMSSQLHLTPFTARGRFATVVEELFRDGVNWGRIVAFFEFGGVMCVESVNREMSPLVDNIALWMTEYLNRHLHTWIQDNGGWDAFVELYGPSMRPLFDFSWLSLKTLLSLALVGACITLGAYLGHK
Chain of Bcl-xL (Q07817 whole entry): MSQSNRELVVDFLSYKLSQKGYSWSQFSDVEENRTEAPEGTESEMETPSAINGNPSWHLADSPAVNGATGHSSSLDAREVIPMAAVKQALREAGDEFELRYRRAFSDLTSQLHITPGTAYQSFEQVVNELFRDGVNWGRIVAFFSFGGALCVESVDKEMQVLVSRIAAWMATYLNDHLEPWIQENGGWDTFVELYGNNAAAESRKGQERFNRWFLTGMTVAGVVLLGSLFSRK

Row | Molecule | IC50 [1] [nM] | IC50 [2] [nM] | IC50 [3] [nM] | IC50 [4] [nM] | other results
1 | CC(C)c1nc2cc(S(=O)(=O)NC(=O)c3ccc(N4CCN(CC5=C(c6ccc(Cl)cc6)CC6(CCC6)CC5)CC4)cc3Oc3cnc4[nH]ccc4c3)cc([N+](=O)[O-])c2[nH]1 [compound 58, 2-((1H-pyrrolo[2,3-b]pyridin-5-yl)oxy)-4-(4-((6-(4-chlorophenyl)spiro[3.5]non-6-en-7-yl)methyl)piperazin-1-yl)-N-((2-isopropyl-7-nitro-1H-benzo[d]imidazol-5-yl)sulfonyl)benzamide] | 3.8 | 35 | 250 | 19.2 | –
2 | O=C(NS(=O)(=O)c1ccc(NCC2CCOCC2)c([N+](=O)[O-])c1)c1ccc(N2CCN(CC3=C(c4ccc(Cl)cc4)CC4(CC3)COC4)CC2)cc1Oc1cnc2[nH]ccc2c1 [Cpd. No. 2, 2-((1H-pyrrolo[2,3-b]pyridin-5-yl)oxy)-4-(4-((6-(4-chlorophenyl)-2-oxaspiro[3.5]non-6-en-7-yl)methyl)piperazin-1-yl)-N-((3-nitro-4-(((tetrahydro-2H-pyran-4-yl)methyl)amino)phenyl)sulfonyl)benzamide] | 0.76 | 5.5 | 85 | 10.6 | –
3 | O=C(NS(=O)(=O)c1cc([N+](=O)[O-])c2[nH]c(C3CC3)nc2c1)c1ccc(N2CCN(CC3=C(c4ccc(Cl)cc4)CC4(CCC4)CC3)CC2)cc1Oc1cnc2[nH]ccc2c1 [compound 59, 2-((1H-pyrrolo[2,3-b]pyridin-5-yl)oxy)-4-(4-((6-(4-chlorophenyl)spiro[3.5]non-6-en-7-yl)methyl)piperazin-1-yl)-N-((2-cyclopropyl-7-nitro-1H-benzo[d]imidazol-5-yl)sulfonyl)benzamide] | 5 | 65 | 468 | 20.7 | –
4 | O=C(NS(=O)(=O)c1cccc([N+](=O)[O-])c1)c1ccc(N2CCN(CC3=C(c4ccc(Cl)cc4)CC4(CCC4)CC3)CC2)cc1Oc1cnc2[nH]ccc2c1 [Cpd. No. 4, 2-((1H-pyrrolo[2,3-b]pyridin-5-yl)oxy)-4-(4-((6-(4-chlorophenyl)spiro[3.5]non-6-en-7-yl)methyl)piperazin-1-yl)-N-((3-nitrophenyl)sulfonyl)benzamide] | 3.1 | 427 | – | 8.6 | –
5 | O=C(NS(=O)(=O)c1ccc(NCC2CCOCC2)c([N+](=O)[O-])c1)c1ccc(C2CCN(CC3=C(c4ccc(Cl)cc4)CC4(CCC4)CC3)CC2)cc1Oc1cnc2[nH]ccc2c1 [compound 12, 2-((1H-pyrrolo[2,3-b]pyridin-5-yl)oxy)-4-(1-((6-(4-chlorophenyl)spiro[3.5]non-6-en-7-yl)methyl)piperidin-4-yl)-N-((3-nitro-4-(((tetrahydro-2H-pyran-4-yl)methyl)amino)phenyl)sulfonyl)benzamide] | 4.4 | 78 | 253 | – | –
6 | O=C(NS(=O)(=O)c1ccc(NCC2CCOCC2)c([N+](=O)[O-])c1)c1ccc(N2CCN(CC3=C(c4ccc(Cl)cc4)CC4(CCC4)CC3)CC2)cc1Oc1cnc2[nH]ccc2c1 [Cpd. No. 3, 2-((1H-pyrrolo[2,3-b]pyridin-5-yl)oxy)-4-(4-((6-(4-chlorophenyl)spiro[3.5]non-6-en-7-yl)methyl)piperazin-1-yl)-N-((3-nitro-4-(((tetrahydro-2H-pyran-4-yl)methyl)amino)phenyl)sulfonyl)benzamide] | 1.2 | 26 | – | 13.7 | AUC0-∞ IV ([5]; IV 2 mg/kg): 2683 n · gh/mL; AUC0-∞ PO ([5]; oral 20 mg/kg): 7775 n · gh/mL; F(AUC0-t) ([5]; oral 20 mg/kg vs IV 2 mg/kg): 29.0%; MRT inf ([5]; rat, in vivo, IV 2 mg/kg): 2.37 h; AUC(0-t) ([5]; rat, in vivo, IV 2 mg/kg, read-out: AUC0-t IV): 2660 ng·h/mL; clearance ([5]; rat, in vivo, IV 2 mg/kg, read-out: CL (iv) (converted)): 12.8 mL/min/kg; Cmax ([5]; rat, in vivo, IV 2 mg/kg, read-out: Cmax IV): 4200 ng/mL; Tmax ([5]; rat, in vivo, IV 2 mg/kg, read-out: Tmax IV): 0.083 h; Vd ([5]; rat, in vivo, IV 2 mg/kg, read-out: Vss (iv)): 1.86 L/kg; half-life ([5]; rat, in vivo, IV 2 mg/kg, read-out: t1/2 IV (converted)): 4.94 h; AUC(0-t) ([5]; rat, in vivo, oral 20 mg/kg, read-out: AUC0-t PO): 7630 ng·h/mL; Cmax ([5]; rat, in vivo, oral 20 mg/kg, read-out: Cmax PO): 1320 ng/mL; Tmax ([5]; rat, in vivo, oral 20 mg/kg, read-out: Tmax PO): 2 h; half-life ([5]; rat, in vivo, oral 20 mg/kg, read-out: t1/2 PO (converted)): 4.46 h
7 | O=C(NS(=O)(=O)c1ccc(NC[C@@H]2COCCO2)c([N+](=O)[O-])c1)c1ccc(C2=CCN(CC3=C(c4ccc(Cl)cc4)CC4(CCC4)CC3)CC2)cc1Oc1cnc2[nH]ccc2c1 [compound 1, (R)-N-((4-(((1,4-dioxan-2-yl)methyl)amino)-3-nitrophenyl)sulfonyl)-2-((1H-pyrrolo[2,3-b]pyridin-5-yl)oxy)-4-(1-((6-(4-chlorophenyl)spiro[3.5]non-6-en-7-yl)methyl)-1,2,3,6-tetrahydropyridin-4-yl)benzamide] | – | 3 | 47 | – | –
8 | CNc1ccc(S(=O)(=O)NC(=O)c2ccc(N3CCN(CC4=C(c5ccc(Cl)cc5)CC5(CCC5)CC4)CC3)cc2Oc2cnc3[nH]ccc3c2)cc1[N+](=O)[O-] [compound 10, 2-((1H-pyrrolo[2,3-b]pyridin-5-yl)oxy)-4-(4-((6-(4-chlorophenyl)spiro[3.5]non-6-en-7-yl)methyl)piperazin-1-yl)-N-((4-(methylamino)-3-nitrophenyl)sulfonyl)benzamide] | 3.3 | 32 | 182 | 14 | –
9 | Flu-BID: Fluorescein labeled BID (79-99) peptide, fluorescent probe in FP assay for Mcl-1 | – | – | – | – | Kd [6]: 6.9 ± 0.9 nM
10 | O=C(NS(=O)(=O)c1cc([N+](=O)[O-])c2cn(C3CCOCC3)nc2c1)c1ccc(N2CCN(CC3=C(c4ccc(Cl)cc4)CC4(CCC4)CC3)CC2)cc1Oc1cnc2[nH]ccc2c1 [compound 65, 2-((1H-pyrrolo[2,3-b]pyridin-5-yl)oxy)-4-(4-((6-(4-chlorophenyl)spiro[3.5]non-6-en-7-yl)methyl)piperazin-1-yl)-N-((4-nitro-2-(tetrahydro-2H-pyran-4-yl)-2H-indazol-6-yl)sulfonyl)benzamide] | 1.4 | 11 | – | 9.9 | –
11 | CN(C)c1ccc(S(=O)(=O)NC(=O)c2ccc(N3CCN(CC4=C(c5ccc(Cl)cc5)CC5(CCC5)CC4)CC3)cc2Oc2cnc3[nH]ccc3c2)cc1[N+](=O)[O-] [compound 11, 2-((1H-pyrrolo[2,3-b]pyridin-5-yl)oxy)-4-(4-((6-(4-chlorophenyl)spiro[3.5]non-6-en-7-yl)methyl)piperazin-1-yl)-N-((4-(dimethylamino)-3-nitrophenyl)sulfonyl)benzamide] | 11.9 | 61 | 1020 | 77.8 | –

Reference: patent US10221174B2, “N-(phenylsulfonyl)benzamides and related compounds as BCL-2 inhibitors” (THE REGENTS OF THE UNIVERSITY OF MICHIGAN, priority 2016, dated 2019)
